# Organism: Rattus norvegicus
# Experiment: DrugMatrix - Regimen: Daily Repeat
# Format: toxicity, organism-based, Sprague-Dawley
# Parameters: regimen Daily Repeat, gender Male, age 6-8 weeks
# Conditions: in vivo, po, 500 mg/kg, route oral GAVAGE, dose level High, vehicle 100 % WATER; for ABSOLUTE BASOPHIL / ABSOLUTE EOSINOPHIL / ABSOLUTE LYMPHOCYTE / ABSOLUTE MONOCYTE / ABSOLUTE SEGMENTED NEUTROPHIL / BASOPHIL / EOSINOPHIL / ERYTHROCYTE COUNT / HEMATOCRIT / HEMOGLOBIN / LEUKOCYTE COUNT / LYMPHOCYTE / MEAN CORPUSCULAR HEMOGLOBIN / MEAN CORPUSCULAR HEMOGLOBIN CONCENTRATION / MEAN CORPUSCULAR VOLUME / MONOCYTE / NEUTROPHIL / NUCLEATED RED BLOOD CELLS / PLATELET COUNT: tissue Blood; for ALANINE AMINOTRANSFERASE / ALBUMIN / ALKALINE PHOSPHATASE / ASPARTATE AMINOTRANSFERASE / BLOOD UREA NITROGEN / CARBON DIOXIDE / CHLORIDE / CHOLESTEROL / CREATINE PHOSPHOKINASE / CREATININE / GLUCOSE / LACTATE DEHYDROGENASE / LIPASE / PHOSPHORUS / POTASSIUM / SODIUM / TOTAL BILIRUBIN / TOTAL PROTEIN / URIC ACID: tissue Plasma
smiles,measurement,setting,value
Cc1c(O)c(=O)ccn1C [DEFERIPRONE],ABSOLUTE BASOPHIL,"72 h, time 3 day",0 CELLS/uL
same,ABSOLUTE EOSINOPHIL,"72 h, time 3 day",97 CELLS/uL
same,ABSOLUTE LYMPHOCYTE,"72 h, time 3 day",8507 CELLS/uL
same,ABSOLUTE MONOCYTE,"72 h, time 3 day",223 CELLS/uL
same,ABSOLUTE SEGMENTED NEUTROPHIL,"72 h, time 3 day",223 CELLS/uL
same,BASOPHIL,"72 h, time 3 day",0%
same,EOSINOPHIL,"72 h, time 3 day",1%
same,ERYTHROCYTE COUNT,"72 h, time 3 day",4.97 x10E6/uL
same,HEMATOCRIT,"72 h, time 3 day",30.95%
same,HEMOGLOBIN,"72 h, time 3 day",11.7 G/DL
same,LEUKOCYTE COUNT,"72 h, time 3 day",9.05 x10E3/uL
same,LYMPHOCYTE,"72 h, time 3 day",94%
same,MEAN CORPUSCULAR HEMOGLOBIN,"72 h, time 3 day",23.55 pg
same,MEAN CORPUSCULAR HEMOGLOBIN CONCENTRATION,"72 h, time 3 day",37.8 G/DL
same,MEAN CORPUSCULAR VOLUME,"72 h, time 3 day",62.15 fL
same,MONOCYTE,"72 h, time 3 day",2.5%
same,NEUTROPHIL,"72 h, time 3 day",2.5%
same,NUCLEATED RED BLOOD CELLS,"72 h, time 3 day",0 /100WBC
same,PLATELET COUNT,"72 h, time 3 day",1456.5 x10E3/uL
same,ALANINE AMINOTRANSFERASE,"72 h, time 3 day",39 u/L
same,ALBUMIN,"72 h, time 3 day",4.4 G/DL
same,ALKALINE PHOSPHATASE,"72 h, time 3 day",373 u/L
same,ASPARTATE AMINOTRANSFERASE,"72 h, time 3 day",80 u/L
same,BLOOD UREA NITROGEN,"72 h, time 3 day",18.5 mg/dL
same,CARBON DIOXIDE,"72 h, time 3 day",22.5 mmol/L
same,CHLORIDE,"72 h, time 3 day",105.5 MEQ/L
same,CHOLESTEROL,"72 h, time 3 day",119 mg/dL
same,CREATINE PHOSPHOKINASE,"72 h, time 3 day",322.5 u/L
same,CREATININE,"72 h, time 3 day",0.18 mg/dL
same,GLUCOSE,"72 h, time 3 day",131 mg/dL
same,LACTATE DEHYDROGENASE,"72 h, time 3 day",239 u/L
same,LIPASE,"72 h, time 3 day",10 u/L
same,PHOSPHORUS,"72 h, time 3 day",11.5 mg/dL
same,POTASSIUM,"72 h, time 3 day",6.21 MEQ/L
same,SODIUM,"72 h, time 3 day",143.8 MEQ/L
same,TOTAL BILIRUBIN,"72 h, time 3 day",0.25 mg/dL
same,TOTAL PROTEIN,"72 h, time 3 day",6 G/DL
same,URIC ACID,"72 h, time 3 day",1.45 mg/dL
same,ABSOLUTE BASOPHIL,"120 h, time 5 day",0 CELLS/uL
same,ABSOLUTE EOSINOPHIL,"120 h, time 5 day",0 CELLS/uL
same,ABSOLUTE LYMPHOCYTE,"120 h, time 5 day",9110 CELLS/uL
same,ABSOLUTE MONOCYTE,"120 h, time 5 day",78 CELLS/uL
same,ABSOLUTE SEGMENTED NEUTROPHIL,"120 h, time 5 day",412 CELLS/uL
same,BASOPHIL,"120 h, time 5 day",0%
same,EOSINOPHIL,"120 h, time 5 day",0%
same,ERYTHROCYTE COUNT,"120 h, time 5 day",5.3 x10E6/uL
same,HEMATOCRIT,"120 h, time 5 day",33.8%
same,HEMOGLOBIN,"120 h, time 5 day",12.93 G/DL
same,LEUKOCYTE COUNT,"120 h, time 5 day",9.6 x10E3/uL
same,LYMPHOCYTE,"120 h, time 5 day",95.33%
same,MEAN CORPUSCULAR HEMOGLOBIN,"120 h, time 5 day",24.43 pg
same,MEAN CORPUSCULAR HEMOGLOBIN CONCENTRATION,"120 h, time 5 day",38.27 G/DL
same,MEAN CORPUSCULAR VOLUME,"120 h, time 5 day",63.8 fL
same,MONOCYTE,"120 h, time 5 day",0.67%
same,NEUTROPHIL,"120 h, time 5 day",4%
same,NUCLEATED RED BLOOD CELLS,"120 h, time 5 day",0 /100WBC
same,PLATELET COUNT,"120 h, time 5 day",1024.33 x10E3/uL
same,ALANINE AMINOTRANSFERASE,"120 h, time 5 day",34.33 u/L
same,ALBUMIN,"120 h, time 5 day",4.7 G/DL
same,ALKALINE PHOSPHATASE,"120 h, time 5 day",261 u/L
same,ASPARTATE AMINOTRANSFERASE,"120 h, time 5 day",61.33 u/L
same,BLOOD UREA NITROGEN,"120 h, time 5 day",17 mg/dL
same,CARBON DIOXIDE,"120 h, time 5 day",26.33 mmol/L
same,CHLORIDE,"120 h, time 5 day",109.33 MEQ/L
same,CHOLESTEROL,"120 h, time 5 day",127 mg/dL
same,CREATINE PHOSPHOKINASE,"120 h, time 5 day",232.33 u/L
same,CREATININE,"120 h, time 5 day",0.21 mg/dL
same,GLUCOSE,"120 h, time 5 day",140.33 mg/dL
same,LACTATE DEHYDROGENASE,"120 h, time 5 day",60.33 u/L
same,LIPASE,"120 h, time 5 day",9 u/L
same,PHOSPHORUS,"120 h, time 5 day",11.03 mg/dL
same,POTASSIUM,"120 h, time 5 day",6.28 MEQ/L
same,SODIUM,"120 h, time 5 day",148.93 MEQ/L
same,TOTAL BILIRUBIN,"120 h, time 5 day",0.2 mg/dL
same,TOTAL PROTEIN,"120 h, time 5 day",6.63 G/DL
same,URIC ACID,"120 h, time 5 day",1.83 mg/dL
